Data taken from patent US20110224240A1 (Myrexis, Inc., priority 2010, published 2011).
Several values for one entry are separate records, joined by “and”; a condition that tells them apart may be missing. Equal entries are not always repeated. Where two headings read alike, the source gives them in different places. Marks after values point to notes of the source that are not given here.

What was measured:
[1] = system: P388 murine leukemia cell line; assay: 72 hour cytotoxicity, ATP-Lite cell viability; type: cell-based; details: Mus musculus, P388, Lymphoma, read-out: 72 Hour Cytotoxicity (IC50, nM ± SD)
Method: A P388 murine leukemia cell line was obtained from NCI, Frederick, Md. P388 cells were cultured in RPMI-1640 supplemented with 10% fetal bovine serum, 2 mM Glutamax, 1 mM sodium pyruvate, 0.1 mM non-essential amino acids and 10 mM HEPES. Cells were grown at 37° C. in a humidified 5% CO2 atmosphere. Exponentially growing P388 cells were plated at 5,000 cells/well in a 96-well flat-bottomed microtiter plate (Corning, Costar #3595, Lowell, Mass.). Twenty-four hours later, test compound was added to cells at final concentrations of 100 nM, 33.3 nM, 11.1 nM, 3.7 nM, 1.23 nM, 0.4 nM and 0.13 nM. Cellular viability was determined 72 hours later by measuring intracellular ATP with ATP-Lite assay system. The effect of compounds on cell viability was calculated by comparing the ATP levels of cells exposed to test compound with those of cells exposed to DMSO. A semi-log plot of relative ATP levels versus compound concentration was used to calculate the compound concentration required to inhibit growth by 50% (IC50). Data was analyzed by Prism software (GraphPad; San Diego, Calif.) by fitting it to a sigmoidal dose response curve.

P388 = assay: Multidrug resistant cell assay, cytotoxicity; type: cell-based, murine; details: Mus musculus, P388, 72 h, read-out: Various MDR Cell Line Cytotoxicity IC50
P388/ADR (MDR-1) = assay: Multidrug resistant cell assay, cytotoxicity; type: cell-based; details: 72 hours, read-out: Various MDR Cell Line Cytotoxicity IC50
Method: P388/ADR cell lines were obtained from American Type Culture Collection (Manassas, Va.) and maintained in RPMI-1640 media supplemented with 10% FCS, 10 units/ml penicillin and streptomycin, 2 mM Glutamax and 1 mM sodium pyruvate (Invitrogen Corporation, Carlsbad, Calif.). […] Cells were allowed to adhere to the plate overnight and then incubated with the compound at final concentrations ranging from 0.13 nM to 10 uM for 72 hours. Cell viability was then assessed using the ATP-lite reagent (Perkin Elmer, Foster City, Calif.). Plates were read on a Wallac Topcount luminescence reader (Perkin Elmer, Foster City, Calif.) and the results graphed in Prism software (Graphpad Software, Inc., San Diego, Calif.). Non-linear regression with variable slope analysis was performed to obtain IC50 concentration values.

MCF-7/MX (BCRP-1) = assay: Multidrug resistant cell assay, cytotoxicity; type: cell-based; details: MCF7/MX, 72 h, read-out: Various MDR Cell Line Cytotoxicity IC50
[2] = Pharmacokinetic study in mice, plasma; type: in vivo
Method: (§1) Animals were dosed with approximately 2.5 mg/kg i.v. in the tail vein or 5, 10, 30, or 60 mg/kg p.o. in fed and 60 mg/kg p.o. in a fasted state. Blood samples and whole brains were collected from five mice at each of the […] collection time points (approximately 0.05, 0.25, 1.0, 2.0, 4.0, 8.0, 12.0 and 24.0 hours) after administration of the dose. Plasma was collected from blood samples, and whole brain sample were homoginized. Both tissues were analyzed for the concentration of Compound 1. Pharmacokinetic parameters were estimated by non-compartmental analysis using WinNonlin.

[3] = Pharmacokinetic study in mice, brain; type: in vivo
Method: as §1

B16-F0 tumor = assay: B16-F0 melanoma allograft study in nude mice; type: in vivo; details: melanoma (B16-F0) allografts in nude mice, oral dosing (50 mg/kg qd×5 or 200 mg/kg qwk×2 p.o.), relative to vehicle
Method: Female Crl:Nu/Nu-nuBR mice (Charles River Labs, Wilmington, Mass.) were implanted subcutaneously with 10^6 B16-F0 cells in the right flank. Animals were housed by groups in Positive Individual Ventilation cages in flat-bottom cages with no more than ten mice per cage. Environmental controls were set to maintain a temperature between 65 and 75° F. with a relative humidity of 30-70% in a 12:12 hour light:dark cycle. Animals were fed and watered ad libitum. Tumors were allowed to grow to approximately 100 mm^3 and then mice were placed into test groups (N=10). Animals were treated with vehicle, 50 mg/kg Compound 1 qd×5 p.o. or 200 mg/kg Compound 1 qwk×2 p.o. The mice were observed daily for mortality and signs of toxicity. Tumor growth was monitored externally using a caliper and volumes calculated using the formula [p/6 (width^2×length)], in which width represents the smaller tumor diameter. Studies were completed when the first animal achieved a tumor volume >1500 mm^3. Statistical analysis of variance with unadjusted pair wise comparison was performed using SAS software (Cary, N.C.).

[4] = Pharmacokinetic study in a primate, plasma; type: in vivo, cynomolgus monkey; details: for Compound 1 Plasma Concentration: cynomolgus monkey, oral 20 mg/kg
Method: A single non-naïve male cynomolgus monkey was assigned to this study. […] Compound 1 was administered once orally via a gavage tube. The gavage tube was rinsed with water and removed. Blood was removed through the femoral artery/vein into a tube containing K3EDTA. The samples were centrifuged and the resulting plasma was separated and stored at approximately −70° C. until shipment to the analysis site. At the analysis site, the samples were stored at −20° C. until the day of analysis.
Plasma samples were analyzed for Compound 1 concentration using a LC-MS/MS method. The range of quantitation was 5-5000 ng/mL and utilized a 0.1 mL plasma sample volume. Concentration-time curves were constructed using WinNonlin (version 5.1.1).

NCI/ADR-Res (MDR-1) = assay: Multidrug resistant cell assay, cytotoxicity; details: 72 h, read-out: Various MDR Cell Line Cytotoxicity IC50
[5] = Swiss Webster, mouse, plasma, iv, 2.5 mg/kg, mice, Not Fasted
[6] = Swiss Webster, mouse, plasma, po, 60 mg/kg, mice, Fasted
[7] = Swiss Webster, mouse, plasma, po, 60 mg/kg, mice, Not Fasted
[8] = male cynomolgus monkey, fasted, single oral dose 20 mg/kg, plasma

Q: Which IC50 [1] does the source give for `COc1ccc(N(C)c2nc(CN)nc3ccccc23)cc1` [Compound 1] here?
A: The IC50 was 6.1 ± 2.2 nM.

Q: What about the IC50 (P388) of the same molecule?
A: Its IC50 is 18 nM.

Q: And the IC50 (P388/ADR (MDR-1))?
A: Its IC50 is 27 nM.

Q: And the IC50 (MCF-7/MX (BCRP-1))?
A: The IC50 was 9 nM.

Q: What about the AUC(0-inf) [2, 5] of the same molecule?
A: Its AUC(0-inf) is 467 ng·h/mL.

Q: What about the Cmax [2, 5] of the same molecule?
A: The Cmax was 513 ng/mL and 1.7 µM.

Q: What about the Tmax [2, 5] of the same molecule?
A: The Tmax was 0.05 h.

Q: And the half-life ([2]; Swiss Webster, mouse, plasma, iv, 2.5 mg/kg, mice, Not Fasted, IV, 2.5 mg/kg, read-out: Plasma t½ (converted))?
A: Its half-life is 6.2 h.

Q: What about the half-life ([2]; Swiss Webster, mouse, plasma, po, 60 mg/kg, 60 mg/kg dose in mice, oral, read-out: half life (t1/2) (converted)) of the same molecule?
A: The half-life was roughly 10 h.

Q: And the bioavailability ([2]; Swiss Webster, mouse, plasma, po, 60 mg/kg, 60 mg/kg dose in mice, read-out: oral bioavailability)?
A: The bioavailability was roughly 100%.

Q: What about the AUC(0-inf) [2, 6] of the same molecule?
A: The AUC(0-inf) was 12900 ng·h/mL.

Q: And the Cmax [2, 6]?
A: Its Cmax is 1090 ng/mL and 3.7 µM.

Q: And the Tmax [2, 6]?
A: The Tmax was 1 h.

Q: What about the bioavailability ([2]; Swiss Webster, mouse, plasma, po, 60 mg/kg, mice, Fasted, PO, 60 mg/kg, read-out: % F) of the same molecule?
A: The bioavailability was 115%.

Q: What about the half-life ([2]; Swiss Webster, mouse, plasma, po, 60 mg/kg, mice, Fasted, PO, 60 mg/kg, read-out: Plasma t½ (converted)) of the same molecule?
A: Its half-life is 18.3 h.

Q: What about the AUC(0-inf) [2, 7] of the same molecule?
A: Its AUC(0-inf) is 10700 ng·h/mL.

Q: And the Cmax [2, 7]?
A: The Cmax was 1120 ng/mL and 3.8 µM.

Q: What about the Tmax [2, 7] of the same molecule?
A: The Tmax was 0.25 h.

Q: What about the bioavailability ([2]; Swiss Webster, mouse, plasma, po, 60 mg/kg, mice, Not Fasted, PO, 60 mg/kg, read-out: % F) of the same molecule?
A: The bioavailability was 96%.

Q: And the half-life ([2]; Swiss Webster, mouse, plasma, po, 60 mg/kg, mice, Not Fasted, PO, 60 mg/kg, read-out: Plasma t½ (converted))?
A: Its half-life is 10.8 h.

Q: And the clearance ([2]; Swiss Webster, mouse, plasma, mice, Not Fasted, IV, 2.5 mg/kg, read-out: Plasma CL (converted))?
A: The clearance was 89.3 mL/min/kg.

Q: And the “bioavailability after oral dosing” value ([2]; mice)?
A: Its value is “almost completely bioavailable”.

Q: What about the “oral dose proportionality to plasma Cmax” value ([2]; mice dosed orally up to at least 60 mg/kg) of the same molecule?
A: The value was “Dose proportional increases in Cmax”.

Q: What about the “differences in pharmacokinetics between fed and fasted animals” value ([2]; mice, 60 mg/kg p.o.) of the same molecule?
A: The value was “No significant differences in pharmacokinetics”.

Q: What about the “Plasma CL” value ([2]; mice, Fasted, PO, 60 mg/kg) of the same molecule?
A: Its value is 77.8 mL/min/kg.

Q: And the “Plasma V” value ([2]; mice, Fasted, PO, 60 mg/kg)?
A: Its value is 123.424 L/kg.

Q: And the “Plasma V” value ([2]; mice, Not Fasted, IV, 2.5 mg/kg)?
A: The value was 47.759 L/kg.

Q: And the “Plasma CL” value ([2]; mice, Not Fasted, PO, 60 mg/kg)?
A: Its value is 93.05 mL/min/kg.

Q: And the “Plasma V” value ([2]; mice, Not Fasted, PO, 60 mg/kg)?
A: The value was 86.914 L/kg.

Q: What about the Kp ([3]; Swiss Webster, mouse, brain, other: oral or intravenous, after oral or intravenous dosing, read-out: exposure in the brain relative to that in the plasma) of the same molecule?
A: Its Kp is roughly 7.

Q: What about the Tmax ([3]; Swiss Webster, mouse, brain, mice, Not Fasted, PO, 60 mg/kg) of the same molecule?
A: Its Tmax is 2 h.

Q: What about the half-life ([3]; Swiss Webster, mouse, brain, mice, Not Fasted, PO, 60 mg/kg, read-out: Brain t½ (converted)) of the same molecule?
A: Its half-life is 9 h.

Q: What about the “Brain AUC(0-inf)” value ([3]; mice, Not Fasted, PO, 60 mg/kg) of the same molecule?
A: The value was 77290 ng·h/mL.

Q: And the “Brain CL” value ([3]; mice, Not Fasted, PO, 60 mg/kg)?
A: Its value is 12.9 mL/min/kg.

Q: What about the “Brain Cmax” value ([3]; mice, Not Fasted, PO, 60 mg/kg) of the same molecule?
A: Its value is 6030 ng/mL and 20.4 μM.

Q: And the “Brain V” value ([3]; mice, Not Fasted, PO, 60 mg/kg)?
A: Its value is 10.109 L/kg.

Q: What about the Kp ([3]; mouse, brain, po, Swiss Webster mice, single 60 mg/kg p.o. dose, read-out: Brain concentrations relative to plasma levels (AUC0-∞)) of the same molecule?
A: The Kp was roughly 7.

Q: And the “inhibition of tumor growth” value (B16-F0 tumor)?
A: Its value is “Statistically significant (p<0.00005) inhibition of tumor growth”.

Q: What about the “Compound 1 Plasma Concentration” value ([4]; Post Dose Sample Time 0) of the same molecule?
A: Its value is 3.08* ng/mL.

Q: And the “Compound 1 Plasma Concentration” value ([4]; Post Dose Sample Time 0.25)?
A: Its value is 27.40 ng/mL.

Q: What about the “Compound 1 Plasma Concentration” value ([4]; Post Dose Sample Time 0.5) of the same molecule?
A: The value was 64.15 ng/mL.

Q: What about the “Compound 1 Plasma Concentration” value ([4]; Post Dose Sample Time 1) of the same molecule?
A: Its value is 112.05 ng/mL.

Q: What about the “Compound 1 Plasma Concentration” value ([4]; Post Dose Sample Time 2) of the same molecule?
A: Its value is 166.01 ng/mL.

Q: What about the “Compound 1 Plasma Concentration” value ([4]; Post Dose Sample Time 6) of the same molecule?
A: Its value is 18.72 ng/mL.

Q: And the “Compound 1 Plasma Concentration” value ([4]; Post Dose Sample Time 12)?
A: The value was 3.91* ng/mL.

Q: And the “oral bioavailability” value ([4]; male cynomolgus monkey dosed orally at 20 mg/kg)?
A: Its value is “bioavailable”.

Q: And the AUC(0-inf) [4, 8]?
A: Its AUC(0-inf) is 536 ng·h/mL.

Q: And the CL/F [4, 8]?
A: The CL/F was 622 mL/min/kg.

Q: What about the Cmax [4, 8] of the same molecule?
A: Its Cmax is 166 ng/mL.

Q: What about the Tlast [4, 8] of the same molecule?
A: The Tlast was 12.0 h.

Q: And the Tmax [4, 8]?
A: The Tmax was 2 h.

Q: And the half-life [4, 8]?
A: Its half-life is 1.9 h.

Q: What about the Vd/F ([4]; male cynomolgus monkey, fasted, single oral dose 20 mg/kg, plasma, read-out: Vz/F_obs) of the same molecule?
A: Its Vd/F is 102 L/kg.

Q: And the IC50 (NCI/ADR-Res (MDR-1))?
A: The IC50 was 13 nM.
